{"source": "patent KR20070037041A", "about": "“누에 수번데기로부터 아데노신 유도체 화합물을 정제하는방법 및 아데노신 유도체 화합물을 포함하는 발기부전치료용 조성물” (대한민국(관리부서:농촌진흥청장), priority 2005, dated 2007)", "key": {"[1]": {"system": "bovine vascular endothelial cells (CPAE cell line) [소혈관 내피세포(CPAE cell line)]", "assay": "NO production in CPAE endothelial cells (total nitrate/nitrite, Nims method)", "type": "cell-based"}, "[2]": {"system": "phosphodiesterase I from snake venom (Crotalus atrox), PDE type IV [포스포디에스테라제 I은 뱀독 (Crotalus atrox) 유래 PDE 타입 IV]", "assay": "Phosphodiesterase inhibition ([3H] cAMP SPA)", "type": "biochemical"}, "[3]": {"system": "bovine endothelial cells (CPAE) [소내피세포(CPAE)]", "type": "cell-based", "conditions": "24 h"}, "[4]": {"system": "phosphodiesterase (PDE) [포스포디에스터라제]", "assay": "PDE inhibition in combination with existing PDE inhibitors", "type": "biochemical", "conditions": "existing PDE inhibitor combined with DX fraction (20, 10, 4 μg); in words"}, "[5]": {"conditions": "cited from earlier work"}}, "data": [{"compound": "5-{6-(디메틸아미노)-9H-푸린-9-일}-테트라히드로-4'-푸란-3'-올-5'-o-테트라파이로(tetrafyro)-2H-피란-3'',4'',5''-트리올 [RPC-IV]", "values": [{"measurement": "NO production (540 nm)", "setting": "[1]; RP-HPLC fractions, absorbance at 540 nm", "result": 1.426}, {"measurement": "NO activity", "setting": "[1]; chromatographic fractions, in words", "result": "최대로 방출"}, {"measurement": "phosphodiesterase inhibition", "setting": "[2]; 0, 2, 10, 20 μg, in words", "result": "용량의존적 저해"}, {"measurement": "IC50", "setting": "[2]; PDE [3H] cAMP SPA", "result": 0.88, "unit": "µg/mL"}, {"measurement": "cell viability", "setting": "[3]", "result": 86.9, "unit": "%"}]}, {"compound": "COc1cc2c(cc1OC)-c1c/c(=N\\c3c(C)cc(C)cc3C)n(C)c(=O)n1CC2", "note": "[Trequinsin, 하이드로클로라이드]", "values": [{"measurement": "PDE inhibition on combined administration", "setting": "[4]", "result": "상승작용"}]}, {"compound": "CCCc1nc(C)c2c(=O)[nH]c(-c3cc(S(=O)(=O)N4CCN(CC)CC4)ccc3OCC)nn12", "note": "[레비트라]", "values": [{"measurement": "duration of erection", "setting": "[5]; background", "result": "≤ 36", "unit": "h"}]}, {"compound": "CN1CC(=O)N2[C@H](c3ccc4c(c3)OCO4)c3[nH]c4ccccc4c3C[C@@H]2C1=O", "note": "[시알리스]", "values": [{"measurement": "duration of drug effect", "setting": "[5]; background", "result": "≤ 36", "unit": "h"}]}, {"compound": "CCCOc1ccccc1-c1nc2nn[nH]c2c(=O)[nH]1", "note": "[자프리나스트(zaprinast)]", "values": [{"measurement": "erection induction", "setting": "[5]; compared with Viagra, Trigo-Rocha 1993, Taher 1994", "result": "비아그라보다 다소 낮은 정도로 발기를 유도"}]}]}
